This note sets out measurements from DBAASP.

What all share (test): ≥ marks a high value that may be exact or a test limit, other limits are often not marked, values filed in µg/mL are converted to µM
Assay [1] relates to Pseudomonas aeruginosa LES400.
Assay [2] has as its system Pseudomonas aeruginosa H1027.
Assay [3] has as its system Klebsiella pneumoniae ESBL 63575.
Assay [4] relates to Enterobacter cloacae 218R.
For assay [5], the system named is Enterococcus faecalis ATCC 29212.
Assay [6] concerns Pseudomonas aeruginosa PAO1 H103.
Assay [7] concerns Klebsiella pneumoniae ESBL 61962.
The test system of assay [8] is Staphylococcus aureus C623.
Assay [9] deals with Pseudomonas aeruginosa 213.
The test system of assay [10] is Enterococcus faecium t62764.
The test system of assay [11] is Staphylococcus aureus ATCC 25923.
Assay [12] has as its system Escherichia coli ESBL 63103.
In assay [13] the test system is Stenotrophomonas maltophilia ATCC 13637.
Assay [14] deals with Pseudomonas aeruginosa H1030.
In assay [15] the test system is Enterococcus faecium mic80.
The test system of assay [16] is Pseudomonas aeruginosa 198.
In the next assay the test system is Pseudomonas aeruginosa 9.
Assay [17] deals with Enterococcus faecalis f43559.
For assay [18], the system named is Enterococcus faecalis W61950.
The test system of assay [19] is Escherichia coli ESBL 64771.
For assay [20], the system named is Batrachochytrium dendrobatidis JEL-197.
The test system of assay [21] is Salmonella enterica subsp. enterica serovar Typhimurium ATCC 14028.
Assay [22] has as its system Pseudomonas aeruginosa ATCC 13388.
Assay [23] relates to Staphylococcus aureus ATCC 6538.
The test system of assay [24] is Escherichia coli ATCC 11219.
Assay [25] relates to Klebsiella pneumoniae ATCC 10031.

The structures appear in SMILES notation. ≈ marks a conversion by molar mass, not a printed value.

As to `CC[C@H](C)[C@H](NC(=O)[C@H](CC(N)=O)NC(=O)[C@H](CCCCN)NC(=O)[C@H](Cc1ccccc1)NC(=O)[C@H](CCCN=C(N)N)NC(=O)[C@H](Cc1c[nH]c2ccccc12)NC(=O)[C@H](C)N)C(=O)N[C@@H](CCCN=C(N)N)C(=O)N[C@@H](CCCCN)C(=O)O` [AWRFKNIRK], the minimal inhibitory concentration (MIC) in [1] was not below 149 µM; in [2], not below 74.7 µM; in assay [3], not below 149 µM; in assay [4] it was not below 149 µM; in assay [5], more than 149 µM; in assay [6] it was not below 149 µM. Moreover, the MIC was not below 149 µM in assay [7]; not below 149 µM in assay [8]; not below 149 µM in assay [9]; not below 149 µM in [10]; 149 µM (≈ 182 µg/mL) in assay [11]; not below 149 µM in assay [12]. The MIC (in assay [13]; in assay [14]; in assay [15]; in assay [16]; in the assay on Pseudomonas aeruginosa 9; in [17]) was not below 149 µM each time. For the same molecule, the MIC in [18] and in assay [19] was not below 149 µM in each case.

`CC[C@H](C)[C@H](NC(=O)[C@H](CC(C)C)NC(=O)[C@H](CCCCN)NC(=O)[C@@H]1CCCN1C(=O)[C@@H](NC(=O)[C@H](CC(C)C)NC(=O)[C@H](CC(N)=O)NC(=O)[C@H](C)NC(=O)[C@H](C)NC(=O)[C@H](CC(C)C)NC(=O)CNC(=O)[C@H](C)NC(=O)[C@H](CC(C)C)NC(=O)[C@@H](NC(=O)[C@@H]1CCCN1C(=O)[C@H](CC(C)C)NC(=O)[C@@H](N)Cc1ccccc1)[C@@H](C)CC)C(C)C)C(=O)N[C@H]1CSSC[C@@H](C(=O)O)NC(=O)[C@H](CCCCN)NC(=O)[C@H](CCCCN)NC(=O)[C@H]([C@@H](C)O)NC(=O)[C@H]([C@@H](C)CC)NC(=O)[C@H](CO)NC1=O` [FLPILAGLAANLVPKLICSITKKC] registered an MIC in assay [20] of 12.5 µM (≈ 31.6 µg/mL).

On to `CC[C@H](C)[C@H](NC(=O)CN)C(=O)N[C@@H](Cc1cnc[nH]1)C(=O)N[C@@H](CC(=O)O)C(=O)N[C@H](C(=O)N[C@@H](CC(C)C)C(=O)N[C@@H](CCCCN)C(=O)N[C@@H](Cc1ccc(O)cc1)C(=O)NCC(=O)N[C@@H](CCCCN)C(=O)N1CCC[C@H]1C(=O)N[C@@H](CO)C(N)=O)[C@@H](C)CC` [GIHDILKYGKPS], for which the MIC in [21] was determined as 20 µM (≈ 26.5 µg/mL); in assay [22], 30 µM (≈ 39.8 µg/mL); in [23], 10 µM (≈ 13.3 µg/mL); in assay [24], 5 µM (≈ 6.63 µg/mL); in assay [25] it was 10 µM (≈ 13.3 µg/mL).

Consider `CC[C@H](C)[C@H](NC(=O)CN)C(=O)N[C@@H](Cc1cnc[nH]1)C(=O)N[C@@H](CCCN=C(N)N)C(=O)N[C@H](C(=O)N[C@@H](CC(C)C)C(=O)N[C@@H](CCCCN)C(=O)N[C@@H](Cc1ccc(O)cc1)C(=O)NCC(=O)N[C@@H](CCCCN)C(=O)N1CCC[C@H]1C(=O)N[C@@H](CO)C(N)=O)[C@@H](C)CC` [GIHRILKYGKPS], for which the MIC in assay [21] is 3 µM (≈ 4.1 µg/mL); in [22], 10 µM (≈ 13.7 µg/mL); in assay [23], 10 µM (≈ 13.7 µg/mL); in assay [24] it was 2.2 µM (≈ 3.01 µg/mL); in assay [25] it was 3 µM (≈ 4.1 µg/mL).

For `CC[C@H](C)[C@H](NC(=O)[C@H](CCCCN)NC(=O)[C@H](Cc1c[nH]c2ccccc12)NC(=O)[C@@H](N)CCCCN)C(=O)N[C@@H](Cc1ccccc1)C(=O)N[C@@H](CCCN=C(N)N)C(=O)N[C@@H](CCCN=C(N)N)C(=O)N[C@@H](Cc1c[nH]c2ccccc12)C(=O)N[C@@H](Cc1c[nH]c2ccccc12)C(=O)O` [KWKIFRRWW], the MIC in assay [1] is 6.05 µM (≈ 8.5 µg/mL); in assay [2] it was 1.57 µM (≈ 2.2 µg/mL); in assay [3], not below 49.1 µM; in [4], 3.06 µM (≈ 4.3 µg/mL); in [5], 12.1 µM (≈ 17 µg/mL); in [6] it was 6.05 µM (≈ 8.5 µg/mL). The MIC in assay [7] is not below 98.2 µM; in assay [8] it was 1.57 µM (≈ 2.2 µg/mL); in assay [9], 24.2 µM (≈ 34 µg/mL); in [10], 3.06 µM (≈ 4.3 µg/mL); in assay [11], 1.57 µM (≈ 2.2 µg/mL); in assay [12] it was 12.1 µM (≈ 17 µg/mL). Besides, the MIC in [13] was 0.782 µM (≈ 1.1 µg/mL); in assay [14], 24.2 µM (≈ 34 µg/mL); in assay [15], 12.1 µM (≈ 17 µg/mL); in assay [16], 12.1 µM (≈ 17 µg/mL); in the assay with Pseudomonas aeruginosa 9, 12.1 µM (≈ 17 µg/mL); in assay [17], not below 49.1 µM. Also, the MIC is not below 49.1 µM in assay [18] and 6.05 µM (≈ 8.5 µg/mL) in [19].
